Assay results from US11793849B2, “Method of Chinese herbal medicine extract used for treating multiple diseases caused by drug resistant bacteria infection” (priority 2016, dated 2023).
Where two headings read alike, the source gives them in different places.

Test system: MDRAB
Test: Checkerboard assay (combined-use MIC, FIC)
Format: cell-based, Acinetobacter baumannii
Settings: for FIC, all strains / MIC50 of the antibiotic after combined use / MIC90 of the antibiotic after combined use / reduction of the antibiotic's MIC50 vs single use / reduction of the antibiotic's MIC90 vs single use / share of strains with FIC ≤ 0.5: 20 MDRABs; for MIC: Acinetobacter baumannii, EA=60% ethanol extract, read-out: single-use MIC
Experimental: Test methods of the sensibilization effects of the test product to similar antibiotics: it is operated by referring to a checkerboard assay recommended by NCCLS.
The checkerboard assay is performed in a 96-pore sterile culture plate.
Calculation of a Fractional Inhibitory Concentration (FIC): FIC=S20b combined-use MIC/S20b single-use MIC+antibiotic combined-use MIC/antibiotic single-use MIC. By calculating the FIC, the combined antibacterial interaction between the EA and the antibiotic is evaluated, with synergistic effect for FIC≤0.5, additive effect for 0.5<FIC≤1, indifferent effect for 1<FIC≤2 and antagonistic effect for FIC>2. According to a sterile growth pore, the optimum concentration ratio between the EA and the antibiotic is founded out. At last, the effect of the EA to strengthen the efficacy of the antibiotic is evaluated.

[1] = antibiotic with 60% ethanol extract
[2] = antibiotic with 95% ethanol extract
[3] = antibiotic with EA (10% ethanol extract)
[4] = antibiotic with EA (water extract)

Compound: CC(C)(O/N=C(\C(=O)N[C@@H]1C(=O)N2C(C(=O)[O-])=C(C[n+]3ccccc3)CS[C@H]12)c1csc(N)n1)C(=O)O [CAZ, Ceftazidime]
- FIC, all strains [1]: ≤ 2
- MIC50 of the antibiotic after combined use [1]: 128 µg/mL
- MIC90 of the antibiotic after combined use [1]: 256 µg/mL
- reduction of the antibiotic's MIC50 vs single use [1]: 75%
- reduction of the antibiotic's MIC90 vs single use [1]: 50%
- share of strains with FIC ≤ 0.5 [1]: 10%
- FIC, all strains [2]: ≤ 2
- MIC50 of the antibiotic after combined use [2]: 128 µg/mL
- MIC90 of the antibiotic after combined use [2]: 256 µg/mL
- reduction of the antibiotic's MIC50 vs single use [2]: 75%
- reduction of the antibiotic's MIC90 vs single use [2]: 50%
- share of strains with FIC ≤ 0.5 [2]: 10%
- FIC, all strains [3]: ≤ 2
- MIC50 of the antibiotic after combined use [3]: 128 µg/mL
- MIC90 of the antibiotic after combined use [3]: 256 µg/mL
- reduction of the antibiotic's MIC50 vs single use [3]: 75%
- reduction of the antibiotic's MIC90 vs single use [3]: 50%
- share of strains with FIC ≤ 0.5 [3]: 30%
- FIC, all strains [4]: ≤ 2
- MIC50 of the antibiotic after combined use [4]: 128 µg/mL
- MIC90 of the antibiotic after combined use [4]: 256 µg/mL
- reduction of the antibiotic's MIC50 vs single use [4]: 75%
- reduction of the antibiotic's MIC90 vs single use [4]: 50%
- share of strains with FIC ≤ 0.5 [4]: 20%
- MIC (strain A1): 128 µg/mL
- MIC (strain A2): 512 µg/mL
- MIC (strain A3): 512 µg/mL
- MIC (strain A4): 256 µg/mL
- MIC (strain A5): 64 µg/mL
- MIC (strain A6): 1020 µg/mL
- MIC (strain A7): 1020 µg/mL
- MIC (strain A8): 512 µg/mL
- MIC (strain A9): 512 µg/mL
- MIC (strain A10): 512 µg/mL
- MIC (strain A11): 512 µg/mL
- MIC (strain A12): 512 µg/mL
- MIC (strain A13): 256 µg/mL
- MIC (strain A14): 512 µg/mL
- MIC (strain A15): 256 µg/mL
- MIC (strain A16): 512 µg/mL
- MIC (strain A17): 256 µg/mL
- MIC (strain A18): 512 µg/mL
- MIC (strain A19): 256 µg/mL
- MIC (strain A20): 512 µg/mL
- combined-use MIC (strain A1, EA (10% ethanol extract) with CAZ): 64 µg/mL
- combined-use MIC (strain A1, EA (60% ethanol extract) + CAZ combined): 64 µg/mL
- combined-use MIC (strain A1, EA (P. clypearia 95% ethanol extract) combined with CAZ): 64 µg/mL
- combined-use MIC (strain A1, EA (water extract) with CAZ): 64 µg/mL
- combined-use MIC (strain A2, EA (10% ethanol extract) with CAZ): 256 µg/mL
- combined-use MIC (strain A2, EA (60% ethanol extract) + CAZ combined): 128 µg/mL
- combined-use MIC (strain A2, EA (P. clypearia 95% ethanol extract) combined with CAZ): 128 µg/mL
- combined-use MIC (strain A2, EA (water extract) with CAZ): 256 µg/mL
- combined-use MIC (strain A3, EA (10% ethanol extract) with CAZ): 256 µg/mL
- combined-use MIC (strain A3, EA (60% ethanol extract) + CAZ combined): 128 µg/mL
- combined-use MIC (strain A3, EA (P. clypearia 95% ethanol extract) combined with CAZ): 128 µg/mL
- combined-use MIC (strain A3, EA (water extract) with CAZ): 256 µg/mL
- combined-use MIC (strain A4, EA (10% ethanol extract) with CAZ): 64 µg/mL
- combined-use MIC (strain A4, EA (60% ethanol extract) + CAZ combined): 64 µg/mL
- combined-use MIC (strain A4, EA (P. clypearia 95% ethanol extract) combined with CAZ): 64 µg/mL
- combined-use MIC (strain A4, EA (water extract) with CAZ): 32 µg/mL
- combined-use MIC (strain A5, EA (10% ethanol extract) with CAZ): 32 µg/mL
- combined-use MIC (strain A5, EA (60% ethanol extract) + CAZ combined): 32 µg/mL
- combined-use MIC (strain A5, EA (P. clypearia 95% ethanol extract) combined with CAZ): 32 µg/mL
- combined-use MIC (strain A5, EA (water extract) with CAZ): 32 µg/mL
- combined-use MIC (strain A6, EA (10% ethanol extract) with CAZ): 512 µg/mL
- combined-use MIC (strain A6, EA (60% ethanol extract) + CAZ combined): 512 µg/mL
- combined-use MIC (strain A6, EA (P. clypearia 95% ethanol extract) combined with CAZ): 512 µg/mL
- combined-use MIC (strain A6, EA (water extract) with CAZ): 512 µg/mL
- combined-use MIC (strain A7, EA (10% ethanol extract) with CAZ): 512 µg/mL
- combined-use MIC (strain A7, EA (60% ethanol extract) + CAZ combined): 256 µg/mL
- combined-use MIC (strain A7, EA (P. clypearia 95% ethanol extract) combined with CAZ): 256 µg/mL
- combined-use MIC (strain A7, EA (water extract) with CAZ): 512 µg/mL
- combined-use MIC (strain A8, EA (10% ethanol extract) with CAZ): 256 µg/mL
- combined-use MIC (strain A8, EA (60% ethanol extract) + CAZ combined): 256 µg/mL
- combined-use MIC (strain A8, EA (P. clypearia 95% ethanol extract) combined with CAZ): 256 µg/mL
- combined-use MIC (strain A8, EA (water extract) with CAZ): 256 µg/mL
- combined-use MIC (strain A9, EA (10% ethanol extract) with CAZ): 128 µg/mL
- combined-use MIC (strain A9, EA (60% ethanol extract) + CAZ combined): 64 µg/mL
- combined-use MIC (strain A9, EA (P. clypearia 95% ethanol extract) combined with CAZ): 256 µg/mL
- combined-use MIC (strain A9, EA (water extract) with CAZ): 64 µg/mL
- combined-use MIC (strain A10, EA (10% ethanol extract) with CAZ): 256 µg/mL
- combined-use MIC (strain A10, EA (60% ethanol extract) + CAZ combined): 128 µg/mL
- combined-use MIC (strain A10, EA (P. clypearia 95% ethanol extract) combined with CAZ): 256 µg/mL
- combined-use MIC (strain A10, EA (water extract) with CAZ): 256 µg/mL
- combined-use MIC (strain A11, EA (10% ethanol extract) with CAZ): 128 µg/mL
- combined-use MIC (strain A11, EA (60% ethanol extract) + CAZ combined): 64 µg/mL
- combined-use MIC (strain A11, EA (P. clypearia 95% ethanol extract) combined with CAZ): 64 µg/mL
- combined-use MIC (strain A11, EA (water extract) with CAZ): 256 µg/mL
- combined-use MIC (strain A12, EA (10% ethanol extract) with CAZ): 128 µg/mL
- combined-use MIC (strain A12, EA (60% ethanol extract) + CAZ combined): 128 µg/mL
- combined-use MIC (strain A12, EA (P. clypearia 95% ethanol extract) combined with CAZ): 128 µg/mL
- combined-use MIC (strain A12, EA (water extract) with CAZ): 128 µg/mL
- combined-use MIC (strain A13, EA (10% ethanol extract) with CAZ): 128 µg/mL
- combined-use MIC (strain A13, EA (60% ethanol extract) + CAZ combined): 128 µg/mL
- combined-use MIC (strain A13, EA (P. clypearia 95% ethanol extract) combined with CAZ): 128 µg/mL
- combined-use MIC (strain A13, EA (water extract) with CAZ): 128 µg/mL
- combined-use MIC (strain A14, EA (10% ethanol extract) with CAZ): 64 µg/mL
- combined-use MIC (strain A14, EA (60% ethanol extract) + CAZ combined): 256 µg/mL
- combined-use MIC (strain A14, EA (P. clypearia 95% ethanol extract) combined with CAZ): 256 µg/mL
- combined-use MIC (strain A14, EA (water extract) with CAZ): 64 µg/mL
- combined-use MIC (strain A15, EA (10% ethanol extract) with CAZ): 128 µg/mL
- combined-use MIC (strain A15, EA (60% ethanol extract) + CAZ combined): 128 µg/mL
- combined-use MIC (strain A15, EA (P. clypearia 95% ethanol extract) combined with CAZ): 128 µg/mL
- combined-use MIC (strain A15, EA (water extract) with CAZ): 128 µg/mL
- combined-use MIC (strain A16, EA (10% ethanol extract) with CAZ): 128 µg/mL
- combined-use MIC (strain A16, EA (60% ethanol extract) + CAZ combined): 128 µg/mL
- combined-use MIC (strain A16, EA (P. clypearia 95% ethanol extract) combined with CAZ): 256 µg/mL
- combined-use MIC (strain A16, EA (water extract) with CAZ): 64 µg/mL
- combined-use MIC (strain A17, EA (10% ethanol extract) with CAZ): 64 µg/mL
- combined-use MIC (strain A17, EA (60% ethanol extract) + CAZ combined): 128 µg/mL
- combined-use MIC (strain A17, EA (P. clypearia 95% ethanol extract) combined with CAZ): 128 µg/mL
- combined-use MIC (strain A17, EA (water extract) with CAZ): 32 µg/mL
- combined-use MIC (strain A18, EA (10% ethanol extract) with CAZ): 256 µg/mL
- combined-use MIC (strain A18, EA (60% ethanol extract) + CAZ combined): 128 µg/mL
- combined-use MIC (strain A18, EA (P. clypearia 95% ethanol extract) combined with CAZ): 128 µg/mL
- combined-use MIC (strain A18, EA (water extract) with CAZ): 256 µg/mL
- combined-use MIC (strain A19, EA (10% ethanol extract) with CAZ): 64 µg/mL
- combined-use MIC (strain A19, EA (60% ethanol extract) + CAZ combined): 128 µg/mL
- combined-use MIC (strain A19, EA (P. clypearia 95% ethanol extract) combined with CAZ): 128 µg/mL
- combined-use MIC (strain A19, EA (water extract) with CAZ): 128 µg/mL
- combined-use MIC (strain A20, EA (10% ethanol extract) with CAZ): 128 µg/mL
- combined-use MIC (strain A20, EA (60% ethanol extract) + CAZ combined): 256 µg/mL
- combined-use MIC (strain A20, EA (P. clypearia 95% ethanol extract) combined with CAZ): 256 µg/mL
- combined-use MIC (strain A20, EA (water extract) with CAZ): 64 µg/mL
